Starred links: 1 amine or outer side, 2 acyl side, 3 side chain; linkers in the order of their positions; H or OH if unused. Non-standard residues stand in square brackets, D forms with d. Residues, ends and D or L forms follow the SMILES beside them. *: point of attachment. Pipz(1-CH2CO,4-CH2CH2NH) = O=C(CN1CCN(CCN[*:1])CC1)[*:2]; C18 diacid = O=C(O)CCCCCCCCCCCCCCCCC(=O)*; γGlu = O=C(O)[C@H](CCC(=O)[*:2])N[*:1]; 2Pal = N[C@@H](Cc1ccccn1)C(=O)O; NMeL = CN[C@@H](CC(C)C)C(=O)O; NMeA = CN[C@@H](C)C(=O)O; Nle = CCCC[C@H](N)C(=O)O; Sar = CNCC(=O)O
Tests used:
Assay type in all cases: cell-based
[1] = target: T1, human NMUR2 receptor (Homo sapiens, UniProt Q9GZQ4); experiment: IP1 Gq HTRF assay, activation of human NMUR2 in human plasma; parameters: expressed in transfected cells; host or cells: CHO-K1; details: CHO-K1 cells expressing human NMUR2, 100% human plasma; read-out: EC50 (hNMUR2) human plasma
Summary of the method: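 EC50 obtained via 4-parameter sigmoidal regression of HTRF IP-One signal (665 nm/620 nm), which falls as intracellular IP1 rises. Stimulation: 1 h, 37° C, peptides in human plasma plus 50 mM LiCl, 1% DMSO final, on NMUR2-expressing CHO-K1 cells, 8 concentrations.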

[2] = target: T2, human NMUR1 receptor (Homo sapiens, UniProt Q9HB89); experiment: IP1 Gq HTRF assay, activation of human NMUR1 in buffer; details: CHO-K1 cells expressing human NMUR1, stimulation buffer with 0.1% BSA; read-out: EC50 (hNMUR1) buffer
T2 construct: expressed in transfected cells; host or cells: CHO-K1
T2 sequence (Q9HB89 1-426): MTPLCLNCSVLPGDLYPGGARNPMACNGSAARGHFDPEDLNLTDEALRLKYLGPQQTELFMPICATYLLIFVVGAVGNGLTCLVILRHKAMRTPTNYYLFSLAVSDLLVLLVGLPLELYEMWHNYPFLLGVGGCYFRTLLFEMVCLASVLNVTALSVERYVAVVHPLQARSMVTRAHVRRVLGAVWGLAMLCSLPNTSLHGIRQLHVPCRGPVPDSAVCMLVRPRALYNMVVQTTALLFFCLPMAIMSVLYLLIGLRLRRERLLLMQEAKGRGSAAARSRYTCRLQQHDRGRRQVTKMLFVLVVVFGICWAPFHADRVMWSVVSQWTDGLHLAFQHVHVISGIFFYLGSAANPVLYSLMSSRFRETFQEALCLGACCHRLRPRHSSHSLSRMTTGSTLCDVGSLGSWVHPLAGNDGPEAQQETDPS
From the text: Example 3: IP1 Gq HTRF Assay Activation of Human NMUR2 or Human NMUR1 in Buffer Application of the Homogenous Time Resolved Fluorescence (HTRF) technology optimized for Gq coupled receptors has been described in detail in the Cisbio IP-One Gq kit manual. In brief, a FRET signal (FRET: fluorescence resonance energy transfer) is generated between the donor label of an IP-One antibody (anti-IP1-Tb) and the acceptor label of a tagged IP-One (IP1-d2). Agonism of a Gq coupled receptor increases intracellular IP-One, which competes with labeled IP-One and leads to a reduction of the FRET signal. Frozen stocks of CHO-K1 cells stably expressing the human NMUR1 or NMUR2 receptor were thawed and 5000 cells were seeded in culture medium (HAM'S F12, 10% FCS) into each well of a 384-well assay plate. After seeding, cells were incubated for 24 h in a humidified incubator at 37° C. and 5% CO2. Next, cells were washed once with 50 μL of wash buffer (20 mM Hepes, 1×HBSS, pH 7.4), followed by addition of either 10 μL of stimulation buffer (20 mM Hepes, 1×HBSS, 50 mM LiCl, 0.1% BSA, pH 7.4). Peptide agonists to be tested were dissolved in 100% DMSO and pre-diluted in stimulation buffer at a suitable concentration range for an 8 pt dose-response curve. 5 μL of peptide pre-dilution were then added to each well, followed by another 5 μL of stimulation buffer to give a final concentration of 1% DMSO. Samples were subsequently incubated for 1 hour in a humidified incubator at 37° C. After addition of 5 μL each of IP1-d2 and anti-IP1-Tb, samples were incubated for another 1 hour at room temperature and FRET signals (ratio 665 nm/620 nm) were measured. EC50 values were calculated by nonlinear regression using a 4-parameter sigmoidal curve fit.

[3] = target: T1, human NMUR2 receptor; experiment: IP1 Gq HTRF assay, activation of human NMUR2 in buffer; parameters: expressed in transfected cells; host or cells: CHO-K1; details: CHO-K1 cells expressing human NMUR2, stimulation buffer with 0.1% BSA; read-out: EC50 (hNMUR2) buffer
Summary of the method: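 IP-One HTRF competition (665/620 nm ratio) read after 1 h agonist exposure at 37 °C in pH 7.4 HEPES/HBSS stimulation buffer containing 50 mM LiCl, 0.1% BSA, 1% DMSO. Cells: CHO-K1 stably expressing human NMUR2 or NMUR1. EC50 by 4-parameter nonlinear regression of 8-point curves.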

T1 sequence (Q9GZQ4 whole entry): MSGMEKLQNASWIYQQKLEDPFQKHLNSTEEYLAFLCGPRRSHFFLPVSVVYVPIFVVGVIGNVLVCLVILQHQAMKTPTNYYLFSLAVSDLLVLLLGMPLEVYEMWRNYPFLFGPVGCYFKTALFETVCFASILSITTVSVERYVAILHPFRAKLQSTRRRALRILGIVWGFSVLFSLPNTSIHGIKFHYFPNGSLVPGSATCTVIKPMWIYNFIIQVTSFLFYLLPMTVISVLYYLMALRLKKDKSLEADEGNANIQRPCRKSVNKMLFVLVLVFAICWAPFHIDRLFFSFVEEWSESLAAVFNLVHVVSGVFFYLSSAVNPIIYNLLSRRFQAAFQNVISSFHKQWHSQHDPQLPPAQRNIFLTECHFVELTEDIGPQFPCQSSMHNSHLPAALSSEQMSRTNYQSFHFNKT

Structure (SMILES)	EC50 [1] [nM]	EC50 [2] [nM]	EC50 [3] [nM]
CCCC[C@H](NC(=O)[C@H](CC(C)C)N(C)C(=O)[C@H](Cc1ccccc1)NC(=O)[C@H](Cc1ccc(O)cc1)NC(=O)CN1CCN(CCNC(=O)CN(C)C(=O)CN(C)C(=O)CN(C)C(=O)CN(C)C(=O)CN(C)C(=O)CN(C)C(=O)CN(C)C(=O)CN(C)C(=O)CN(C)C(=O)CC[C@H](NC(=O)CC[C@H](NC(=O)CC[C@H](NC(=O)CCCCCCCCCCCCCCCCCCC(=O)O)C(=O)O)C(=O)O)C(=O)O)CC1)C(=O)N[C@@H](CCN)C(=O)N(C)[C@@H](C)C(=O)N[C@@H](CCCNC(=N)N)C(=O)NCC(N)=O [Compound 61, C20DA-gGlu3-Sar9-AEPipAc-Tyr-Phe-NMeLeu-Nle-Dbu-NMeAla-Arg-Gly-NH2] (HELM PEPTIDE1{[O=C(O)CCCCCCCCCCCCCCCCCCC(=O)[*:2]].[gGlu].[gGlu].[gGlu].[Sar].[Sar].[Sar].[Sar].[Sar].[Sar].[Sar].[Sar].[Sar].[O=C(CN1CCN(CCN[*:1])CC1)[*:2]].Y.F.[meL].[Nle].[Dab].[meA].R.G.[am]}$$$$V2.0)	14.1	> 1000	4.6
CCCC[C@H](NC(=O)[C@H](CC(C)C)N(C)C(=O)[C@H](Cc1ccccc1)NC(=O)[C@H](Cc1ccc(O)cc1)NC(=O)CN1CCN(CCNC(=O)CN(C)C(=O)CN(C)C(=O)CN(C)C(=O)CN(C)C(=O)CN(C)C(=O)CN(C)C(=O)CN(C)C(=O)CN(C)C(=O)CN(C)C(=O)CN(C)C(=O)CN(C)C(=O)CN(C)C(=O)CN(C)C(=O)CN(C)C(=O)CN(C)C(=O)CC[C@H](NC(=O)CC[C@H](NC(=O)CC[C@H](NC(=O)CC[C@H](NC(=O)CCCCCCCCCCCCCCCCCCC(=O)O)C(=O)O)C(=O)O)C(=O)O)C(=O)O)CC1)C(=O)N[C@@H](CCCCN)C(=O)N(C)[C@@H](C)C(=O)N[C@@H](CCCNC(=N)N)C(=O)NCC(N)=O [Compound 18, C20DA-gGlu4-Sar15-AEPipAc-Tyr-Phe-NMeLeu-Nle-Lys-NMeAla-Arg-Gly-NH2] (HELM PEPTIDE1{[O=C(O)CCCCCCCCCCCCCCCCCCC(=O)[*:2]].[gGlu].[gGlu].[gGlu].[gGlu].[Sar].[Sar].[Sar].[Sar].[Sar].[Sar].[Sar].[Sar].[Sar].[Sar].[Sar].[Sar].[Sar].[Sar].[Sar].[O=C(CN1CCN(CCN[*:1])CC1)[*:2]].Y.F.[meL].[Nle].K.[meA].R.G.[am]}$$$$V2.0)	34.7	> 1000	7
CCCC[C@H](NC(=O)[C@H](CC(C)C)N(C)C(=O)[C@H](Cc1ccccc1)NC(=O)[C@H](Cc1ccc(O)cc1)NC(=O)CN1CCN(CCNC(=O)CN(C)C(=O)CN(C)C(=O)CN(C)C(=O)CN(C)C(=O)CN(C)C(=O)CN(C)C(=O)CN(C)C(=O)CN(C)C(=O)CN(C)C(=O)CN(C)C(=O)CN(C)C(=O)CN(C)C(=O)CN(C)C(=O)CN(C)C(=O)CN(C)C(=O)CC[C@H](NC(=O)CC[C@H](NC(=O)CC[C@H](NC(=O)CCCCCCCCCCCCCCCCCCC(=O)O)C(=O)O)C(=O)O)C(=O)O)CC1)C(=O)N[C@@H](CCCN)C(=O)NCC(=O)N[C@@H](CCCNC(=N)N)C(=O)NCC(N)=O [Compound 29, C20DA-gGlu3-Sar15-AEPipAc-Tyr-Phe-NMeLeu-Nle-Orn-Gly-Arg-Gly-NH2] (HELM PEPTIDE1{[O=C(O)CCCCCCCCCCCCCCCCCCC(=O)[*:2]].[gGlu].[gGlu].[gGlu].[Sar].[Sar].[Sar].[Sar].[Sar].[Sar].[Sar].[Sar].[Sar].[Sar].[Sar].[Sar].[Sar].[Sar].[Sar].[O=C(CN1CCN(CCN[*:1])CC1)[*:2]].Y.F.[meL].[Nle].[Orn].G.R.G.[am]}$$$$V2.0)	535	> 1000	52
CCCC[C@H](NC(=O)[C@H](CC(C)C)N(C)C(=O)[C@H](Cc1ccccc1)NC(=O)[C@H](Cc1ccc(O)cc1)NC(=O)CN1CCN(CCNC(=O)CN(C)C(=O)CN(C)C(=O)CN(C)C(=O)CN(C)C(=O)CN(C)C(=O)CN(C)C(=O)CN(C)C(=O)CN(C)C(=O)CN(C)C(=O)CC[C@H](NC(=O)CC[C@H](NC(=O)CC[C@H](NC(=O)CCCCCCCCCCCCCCCCCCC(=O)O)C(=O)O)C(=O)O)C(=O)O)CC1)C(=O)N[C@@H](CCN)C(=O)N1CCC[C@H]1C(=O)N[C@@H](CCCNC(=N)N)C(=O)NCC(N)=O [Compound 60, C20DA-gGlu3-Sar9-AEPipAc-Tyr-Phe-NMeLeu-Nle-Dbu-Pro-Arg-Gly-NH2] (HELM PEPTIDE1{[O=C(O)CCCCCCCCCCCCCCCCCCC(=O)[*:2]].[gGlu].[gGlu].[gGlu].[Sar].[Sar].[Sar].[Sar].[Sar].[Sar].[Sar].[Sar].[Sar].[O=C(CN1CCN(CCN[*:1])CC1)[*:2]].Y.F.[meL].[Nle].[Dab].P.R.G.[am]}$$$$V2.0)	13.9	540	4
CCCC[C@H](NC(=O)[C@H](CC(C)C)N(C)C(=O)[C@H](Cc1ccccc1)NC(=O)[C@H](Cc1ccc(O)cc1)NC(=O)CN1CCN(CCNC(=O)CN(C)C(=O)CN(C)C(=O)CN(C)C(=O)CN(C)C(=O)CN(C)C(=O)CN(C)C(=O)CN(C)C(=O)CN(C)C(=O)CN(C)C(=O)CN(C)C(=O)CN(C)C(=O)CN(C)C(=O)CN(C)C(=O)CN(C)C(=O)CN(C)C(=O)CC[C@H](NC(=O)CC[C@H](NC(=O)CC[C@H](NC(=O)CCCCCCCCCCCCCCCCC(=O)O)C(=O)O)C(=O)O)C(=O)O)CC1)C(=O)N[C@@H](CCCCN)C(=O)N(C)[C@@H](C)C(=O)N[C@@H](CCCNC(=N)N)C(=O)NCC(N)=O [Compound 47, C18DA-gGlu3-Sar15-AEPipAc-Tyr-Phe-NMeLeu-Nle-Lys-NMeAla-Arg-Gly-NH2] (HELM PEPTIDE1{[O=C(O)CCCCCCCCCCCCCCCCC(=O)[*:2]].[gGlu].[gGlu].[gGlu].[Sar].[Sar].[Sar].[Sar].[Sar].[Sar].[Sar].[Sar].[Sar].[Sar].[Sar].[Sar].[Sar].[Sar].[Sar].[O=C(CN1CCN(CCN[*:1])CC1)[*:2]].Y.F.[meL].[Nle].K.[meA].R.G.[am]}$$$$V2.0)	32.6	> 1000	9.3
CCCC[C@H](NC(=O)[C@H](CC(C)C)N(C)C(=O)[C@H](Cc1ccccc1)NC(=O)[C@H](Cc1ccc(O)cc1)NC(=O)CN1CCN(CCNC(=O)CN(C)C(=O)CN(C)C(=O)CN(C)C(=O)CN(C)C(=O)CN(C)C(=O)CN(C)C(=O)CN(C)C(=O)CN(C)C(=O)CN(C)C(=O)CN(C)C(=O)CN(C)C(=O)CN(C)C(=O)CN(C)C(=O)CN(C)C(=O)CN(C)C(=O)CC[C@H](NC(=O)CC[C@H](NC(=O)CC[C@H](NC(=O)CCCCCCCCCCCCCCCCC(=O)O)C(=O)O)C(=O)O)C(=O)O)CC1)C(=O)N[C@@H](Cc1ccccn1)C(=O)N(C)[C@@H](C)C(=O)N[C@@H](CCCNC(=N)N)C(=O)NCC(N)=O [Compound 48, C18DA-gGlu3-Sar15-AEPipAc-Tyr-Phe-NMeLeu-Nle-2Pal-NMeAla-Arg-Gly-NH2] ({C18 diacid-γGlu-γGlu-γGlu}-[Sar][Sar][Sar][Sar][Sar][Sar][Sar][Sar][Sar][Sar][Sar][Sar][Sar][Sar][Sar][Pipz(1-CH2CO,4-CH2CH2NH)]YF[NMeL][Nle][2Pal][NMeA]RG-NH2)	> 1000	> 1000	> 1000

Source: US20240279278A1, “NMU RECEPTOR 2 AGONISTS” (Boehringer Ingelheim International GmbH, priority 2023, published 2024)
